Test results published in PMC5218480 (PLoS ONE, 2017).

System: MV-4-11 cells
Assay: Gene expression microarray analysis (Affymetrix PrimeView) and GSEA
Assay type: cell-based, human
Set-up: RFU PODN (11730768_x_at) / Fold change /veh PODN (11730768_x_at) / RFU LINC00158 (11744669_a_at) / Fold change /veh LINC00158 (11744669_a_at) / RFU DUSP10 (11751237_a_at) / Fold change /veh DUSP10 (11751237_a_at) / RFU ID3 (11757404_x_at) / Fold change /veh ID3 (11757404_x_at) / RFU PLEKHG5 (11737974_s_at) / Fold change /veh PLEKHG5 (11737974_s_at) / RFU LRRC4B (11730491_at) / Fold change /veh LRRC4B (11730491_at) / RFU GIMAP4 (11747438_a_at) / Fold change /veh GIMAP4 (11747438_a_at) / RFU KRT8 (11758183_x_at) / Fold change /veh KRT8 (11758183_x_at) / RFU CNN1 (11734310_a_at) / Fold change /veh CNN1 (11734310_a_at) / RFU VPS37D (11726825_at) / Fold change /veh VPS37D (11726825_at) / RFU C10orf10 (11716522_x_at) / Fold change /veh C10orf10 (11716522_x_at) / RFU KIR2DL2 /// KIR2DL4 /// KIR2DL5A /// KIR2DL5B /// KIR2DS1 /// KIR2DS2 /// KIR2DS3 /// KIR2DS4 /// KIR3DL3 /// KIR3DL3 /// KIR3DS1 (11738374_at) / Fold change /veh KIR2DL2 /// KIR2DL4 /// KIR2DL5A /// KIR2DL5B /// KIR2DS1 /// KIR2DS2 /// KIR2DS3 /// KIR2DS4 /// KIR3DL3 /// KIR3DL3 /// KIR3DS1 (11738374_at) / RFU C1QL1 (11718748_at) / Fold change /veh C1QL1 (11718748_at) / RFU TMPRSS4 (11747572_a_at) / Fold change /veh TMPRSS4 (11747572_a_at) / RFU HAMP (11756126_x_at) / Fold change /veh HAMP (11756126_x_at) / RFU RNFT2 (11725882_a_at) / Fold change /veh RNFT2 (11725882_a_at) / RFU NR4A2 (11747474_a_at) / Fold change /veh NR4A2 (11747474_a_at) / RFU ABCC12 (11746883_a_at) / Fold change /veh ABCC12 (11746883_a_at) / RFU TMEM136 (11760407_x_at) / Fold change /veh TMEM136 (11760407_x_at) / RFU CLDN22 /// WWC2 (11732394_at) / Fold change /veh CLDN22 /// WWC2 (11732394_at) / RFU HLA-DPB1 (11760878_x_at) / Fold change /veh HLA-DPB1 (11760878_x_at) / RFU SPINT1 (11716480_a_at) / Fold change /veh SPINT1 (11716480_a_at) / RFU GAP43 (11754022_s_at) / Fold change /veh GAP43 (11754022_s_at) / RFU A4GNT (11735810_at) / Fold change /veh A4GNT (11735810_at) / RFU PRB3 (11715151_x_at) / Fold change /veh PRB3 (11715151_x_at) / RFU TUBB4B (11761932_at) / Fold change /veh TUBB4B (11761932_at) / RFU CAPN14 (11732068_a_at) / Fold change /veh CAPN14 (11732068_a_at) / RFU TMCC2 (11721928_a_at) / Fold change /veh TMCC2 (11721928_a_at) / RFU IRGQ (11745062_a_at) / Fold change /veh IRGQ (11745062_a_at) / RFU FAM174B (11720279_a_at) / Fold change /veh FAM174B (11720279_a_at) / RFU TMPRSS4 (11748680_a_at) / Fold change /veh TMPRSS4 (11748680_a_at) / RFU FAM212B (11763350_a_at) / Fold change /veh FAM212B (11763350_a_at) / RFU PLEKHG5 (11743358_a_at) / Fold change /veh PLEKHG5 (11743358_a_at) / RFU ZSCAN30 (11745921_a_at) / Fold change /veh ZSCAN30 (11745921_a_at) / RFU CMKLR1 (11741424_a_at) / Fold change /veh CMKLR1 (11741424_a_at) / RFU LOC101060620 /// MAPK8IP1 (11723275_at) / Fold change /veh LOC101060620 /// MAPK8IP1 (11723275_at) / RFU SPTSSB (11747773_x_at) / Fold change /veh SPTSSB (11747773_x_at) / RFU PRSS12 (11739890_at) / Fold change /veh PRSS12 (11739890_at) / RFU BIN1 (11741810_x_at) / Fold change /veh BIN1 (11741810_x_at) / RFU WNT11 (11732464_a_at) / Fold change /veh WNT11 (11732464_a_at) / RFU C10orf10 (11716521_a_at) / Fold change /veh C10orf10 (11716521_a_at) / RFU C5orf56 (11738089_at) / Fold change /veh C5orf56 (11738089_at) / RFU CYB561 (11721691_x_at) / Fold change /veh CYB561 (11721691_x_at) / RFU ANKRD19P (11752326_a_at) / Fold change /veh ANKRD19P (11752326_a_at) / RFU OR2T12 /// OR2T33 /// OR2T8 (11738714_s_at) / Fold change /veh OR2T12 /// OR2T33 /// OR2T8 (11738714_s_at) / RFU VCAN (11748164_a_at) / Fold change /veh VCAN (11748164_a_at) / RFU JSRP1 (11732532_at) / Fold change /veh JSRP1 (11732532_at) / RFU KRTAP10-11 (11738290_x_at) / Fold change /veh KRTAP10-11 (11738290_x_at) / RFU MYO3A (11730013_a_at) / Fold change /veh MYO3A (11730013_a_at) / RFU EBF3 (11725865_a_at) / Fold change /veh EBF3 (11725865_a_at) / RFU CAMK2N1 (11719241_x_at) / Fold change /veh CAMK2N1 (11719241_x_at) / RFU C5orf56 (11738088_a_at) / Fold change /veh C5orf56 (11738088_a_at) / RFU OLFML3 (11715873_a_at) / Fold change /veh OLFML3 (11715873_a_at) / RFU LOC100653217 /// NTM (11731650_a_at) / Fold change /veh LOC100653217 /// NTM (11731650_a_at) / RFU MAPK11 (11762145_a_at) / Fold change /veh MAPK11 (11762145_a_at) / RFU FIZ1 (11724087_x_at) / Fold change /veh FIZ1 (11724087_x_at) / RFU OASL (11726364_x_at) / Fold change /veh OASL (11726364_x_at) / RFU SOX15 (11748057_x_at) / Fold change /veh SOX15 (11748057_x_at) / RFU CD79A (11719716_a_at) / Fold change /veh CD79A (11719716_a_at) / RFU HIST1H1D (11736915_at) / Fold change /veh HIST1H1D (11736915_at) / RFU CASKIN2 (11723855_a_at) / Fold change /veh CASKIN2 (11723855_a_at) / RFU LOC730098 (11760151_x_at) / Fold change /veh LOC730098 (11760151_x_at) / RFU OR4N2 (11742367_at) / Fold change /veh OR4N2 (11742367_at) / RFU PRRT2 (11749266_a_at) / Fold change /veh PRRT2 (11749266_a_at) / RFU SNX32 (11753110_a_at) / Fold change /veh SNX32 (11753110_a_at) / RFU CDHR5 (11726645_a_at) / Fold change /veh CDHR5 (11726645_a_at) / RFU RCAN1 (11760418_a_at) / Fold change /veh RCAN1 (11760418_a_at) / RFU FAM167A (11723789_a_at) / Fold change /veh FAM167A (11723789_a_at) / RFU FAM26E (11764081_at) / Fold change /veh FAM26E (11764081_at) / RFU ISYNA1 (11749810_s_at) / Fold change /veh ISYNA1 (11749810_s_at) / RFU ACY1 (11761880_at) / Fold change /veh ACY1 (11761880_at) / RFU 11764098_at / Fold change /veh 11764098_at / RFU SAMD14 (11745864_x_at) / Fold change /veh SAMD14 (11745864_x_at) / RFU NPB (11741838_a_at) / Fold change /veh NPB (11741838_a_at) / RFU TMPRSS6 (11731388_a_at) / Fold change /veh TMPRSS6 (11731388_a_at) / RFU KRTAP10-2 (11738614_at) / Fold change /veh KRTAP10-2 (11738614_at) / RFU ARHGAP8 /// PRR5-ARHGAP8 (11727945_x_at) / Fold change /veh ARHGAP8 /// PRR5-ARHGAP8 (11727945_x_at) / RFU KRTAP5-7 /// NADSYN1 (11734609_at) / Fold change /veh KRTAP5-7 /// NADSYN1 (11734609_at) / RFU RASL12 (11751679_a_at) / Fold change /veh RASL12 (11751679_a_at) / RFU CDKN2B (11736163_a_at) / Fold change /veh CDKN2B (11736163_a_at) / RFU PRF1 (11729649_at) / Fold change /veh PRF1 (11729649_at) / RFU, ZNF638 /// ZNF638-IT1 / Fold change vs veh, ZNF638 /// ZNF638-IT1 / RFU, PANK3 / Fold change vs veh, PANK3 / RFU, SH3YL1 / Fold change vs veh, SH3YL1 / RFU, ZEB2 / Fold change vs veh, ZEB2 / RFU, NRIP1 / Fold change vs veh, NRIP1 / RFU, PTTG1IP / Fold change vs veh, PTTG1IP / RFU, CAPN2 / Fold change vs veh, CAPN2 / RFU, MED14 / Fold change vs veh, MED14 / RFU, SNORA58 / Fold change vs veh, SNORA58 / RFU, C1orf63 / Fold change vs veh, C1orf63 / RFU, LRRFIP1 / Fold change vs veh, LRRFIP1 / RFU, NDUFAF7 / Fold change vs veh, NDUFAF7 / RFU, SLC12A2 / Fold change vs veh, SLC12A2 / RFU, IBTK / Fold change vs veh, IBTK / RFU, ESF1 / Fold change vs veh, ESF1 / Fold change vs veh, TMEM50B / RFU, TAOK1 / Fold change vs veh, TAOK1 / RFU, ACBD3 / Fold change vs veh, ACBD3 / RFU, TMA16 / Fold change vs veh, TMA16 / RFU, RWDD3 / Fold change vs veh, RWDD3 / RFU, BCAT1 / Fold change vs veh, BCAT1 / RFU, EDEM3 / Fold change vs veh, EDEM3 / RFU, TMEM33 / Fold change vs veh, TMEM33 / RFU, WDR75 / Fold change vs veh, WDR75 / RFU, AHCTF1 / Fold change vs veh, AHCTF1 / RFU, TFRC / Fold change vs veh, TFRC / RFU, ZDHHC17 / Fold change vs veh, ZDHHC17 / RFU, NOM1 / Fold change vs veh, NOM1 / RFU, ARL8B / Fold change vs veh, ARL8B / RFU, ZBTB11 / Fold change vs veh, ZBTB11 / RFU, TAMM41 / Fold change vs veh, TAMM41 / RFU, KIAA1704 /// LOC100996395 / Fold change vs veh, KIAA1704 /// LOC100996395 / RFU, ING1 / Fold change vs veh, ING1 / RFU, TRMT61B / Fold change vs veh, TRMT61B / RFU, FUBP3 / Fold change vs veh, FUBP3 / RFU, TP53 / Fold change vs veh, TP53 / RFU, TNKS2 / Fold change vs veh, TNKS2 / RFU, ZFP14 / Fold change vs veh, ZFP14 / RFU, ACTR2 / Fold change vs veh, ACTR2 / RFU, PPP3R1 / Fold change vs veh, PPP3R1 / RFU, PIK3R1 / Fold change vs veh, PIK3R1 / RFU, HNRNPA1 / Fold change vs veh, HNRNPA1 / RFU, RNF170 / Fold change vs veh, RNF170 / RFU, ZNF28 / Fold change vs veh, ZNF28 / RFU, RNGTT / Fold change vs veh, RNGTT / RFU, OGT / Fold change vs veh, OGT / RFU, BRD1 / Fold change vs veh, BRD1 / RFU, MARS / Fold change vs veh, MARS / RFU, ZNF655 / Fold change vs veh, ZNF655 / RFU, FAHD1 / Fold change vs veh, FAHD1 / RFU, BDP1 / Fold change vs veh, BDP1 / RFU, LRRCC1 / Fold change vs veh, LRRCC1 / RFU, ARID1A / Fold change vs veh, ARID1A / RFU, ZNF146 / Fold change vs veh, ZNF146 / RFU, ZNF330 / Fold change vs veh, ZNF330 / RFU, GPN3 / Fold change vs veh, GPN3 / RFU, C9orf123 / Fold change vs veh, C9orf123 / RFU, N4BP2L2 / Fold change vs veh, N4BP2L2 / RFU, ARFIP1 / Fold change vs veh, ARFIP1 / RFU, FAM179B / Fold change vs veh, FAM179B / RFU, BCL10 / Fold change vs veh, BCL10 / RFU, UHRF1BP1L / Fold change vs veh, UHRF1BP1L / RFU, BET1 / Fold change vs veh, BET1 / RFU, CNOT2 / Fold change vs veh, CNOT2 / RFU, ZNF268 / Fold change vs veh, ZNF268 / Fold change vs veh, ZNF507 / RFU, DGCR2 / Fold change vs veh, DGCR2 / RFU, WDSUB1 / Fold change vs veh, WDSUB1 / Fold change vs veh, HSP90B1 /// MIR3652 / RFU, ADSS / Fold change vs veh, ADSS / RFU, GK / Fold change vs veh, GK / RFU, ZNF148 / Fold change vs veh, ZNF148 / RFU, TAF9 / Fold change vs veh, TAF9 / RFU, SLC1A5 / Fold change vs veh, SLC1A5 / RFU, SLMO2 / Fold change vs veh, SLMO2 / RFU, ABCC4 / Fold change vs veh, ABCC4 / RFU, LOC101060439 /// RAP1B / Fold change vs veh, LOC101060439 /// RAP1B / RFU, RFX7 / Fold change vs veh, RFX7 / RFU, GTPBP10 / Fold change vs veh, GTPBP10 / RFU, CNEP1R1 / Fold change vs veh, CNEP1R1 / RFU, BIVM-ERCC5 /// ERCC5 / Fold change vs veh, BIVM-ERCC5 /// ERCC5 / RFU, ILF3 / Fold change vs veh, ILF3 / RFU 11762660_at / Fold change /veh 11762660_at / RFU VCAN (11757783_s_at) / Fold change /veh VCAN (11757783_s_at) / RFU DDX43 (11728927_at) / Fold change /veh DDX43 (11728927_at) / RFU KRT8 (11758188_x_at) / Fold change /veh KRT8 (11758188_x_at) / RFU NKD1 (11759106_at) / Fold change /veh NKD1 (11759106_at) / RFU SRD5A1 (11742802_a_at) / Fold change /veh SRD5A1 (11742802_a_at) / RFU TPSAB1 /// TPSB2 (11721975_s_at) / Fold change /veh TPSAB1 /// TPSB2 (11721975_s_at) / RFU GSTM3 (11746129_a_at) / Fold change /veh GSTM3 (11746129_a_at) / RFU IL23R (11737362_x_at) / Fold change /veh IL23R (11737362_x_at) / RFU TMEM51 (11727254_a_at) / Fold change /veh TMEM51 (11727254_a_at) / RFU PIWIL2 (11732686_x_at) / Fold change /veh PIWIL2 (11732686_x_at) / RFU ORM1 (11744905_x_at) / Fold change /veh ORM1 (11744905_x_at) / RFU CCDC152 (11743942_at) / Fold change /veh CCDC152 (11743942_at) / RFU ECM1 (11717891_a_at) / Fold change /veh ECM1 (11717891_a_at) / RFU IL23R (11748794_a_at) / Fold change /veh IL23R (11748794_a_at) / RFU TNFAIP8L3 (11732012_x_at) / Fold change /veh TNFAIP8L3 (11732012_x_at) / RFU MBOAT4 (11741988_at) / Fold change /veh MBOAT4 (11741988_at) / RFU 11764193_at / Fold change /veh 11764193_at / RFU TMEM53 (11763286_at) / Fold change /veh TMEM53 (11763286_at) / RFU MAGEB2 (11727129_at) / Fold change /veh MAGEB2 (11727129_at) / RFU TMEM200A (11744735_a_at) / Fold change /veh TMEM200A (11744735_a_at) / RFU CCDC152 (11751479_a_at) / Fold change /veh CCDC152 (11751479_a_at) / RFU FAM211A (11726209_a_at) / Fold change /veh FAM211A (11726209_a_at) / RFU RGS16 (11746705_a_at) / Fold change /veh RGS16 (11746705_a_at) / RFU VCAN (11755009_s_at) / Fold change /veh VCAN (11755009_s_at) / RFU RHOB (11743442_s_at) / Fold change /veh RHOB (11743442_s_at) / RFU RGS16 (11720943_a_at) / Fold change /veh RGS16 (11720943_a_at) / RFU RGS16 (11720944_at) / Fold change /veh RGS16 (11720944_at) / RFU, VPS4B / Fold change vs veh, VPS4B / RFU, CREB1 / Fold change vs veh, CREB1 / RFU, DNAJC13 / Fold change vs veh, DNAJC13 / RFU, GNAQ / Fold change vs veh, GNAQ / RFU, CDK5R1 / Fold change vs veh, CDK5R1 / RFU, ZRANB3 / Fold change vs veh, ZRANB3 / RFU, CUL4A / Fold change vs veh, CUL4A / RFU, CCNY / Fold change vs veh, CCNY / RFU, UFL1 / Fold change vs veh, UFL1 / RFU, COG3 / Fold change vs veh, COG3 / RFU, DIAPH2 / Fold change vs veh, DIAPH2 / RFU, SKA2 / Fold change vs veh, SKA2 / RFU, AFF3 / Fold change vs veh, AFF3 / RFU, LMF1 / Fold change vs veh, LMF1 / RFU, IPO11 / Fold change vs veh, IPO11 / RFU, DFFB / Fold change vs veh, DFFB / RFU, FOXP1 / Fold change vs veh, FOXP1 / RFU, CARD8 / Fold change vs veh, CARD8 / RFU, STRN3 / Fold change vs veh, STRN3 / RFU, ADK / Fold change vs veh, ADK / RFU, RASSF2 / Fold change vs veh, RASSF2 / RFU, WIPF1 / Fold change vs veh, WIPF1 / RFU, LARP1B / Fold change vs veh, LARP1B / RFU, RASA1 / Fold change vs veh, RASA1 / RFU, RB1 / Fold change vs veh, RB1 / RFU, PPFIA1 / Fold change vs veh, PPFIA1 / RFU, MAT2A / Fold change vs veh, MAT2A / RFU, CCT5 / Fold change vs veh, CCT5 / RFU, WDR92 / Fold change vs veh, WDR92 / RFU, CUX1 / Fold change vs veh, CUX1 / RFU, TTC7A / Fold change vs veh, TTC7A / RFU, TMEM135 / Fold change vs veh, TMEM135 / RFU, DEPTOR / Fold change vs veh, DEPTOR / RFU, CPM / Fold change vs veh, CPM / RFU, DNAJB6 / Fold change vs veh, DNAJB6 / RFU, CACNA2D3 / Fold change vs veh, CACNA2D3 / RFU, DTX4 / Fold change vs veh, DTX4 / RFU, TFCP2 / Fold change vs veh, TFCP2 / RFU, GMCL1 /// GMCL1P1 / Fold change vs veh, GMCL1 /// GMCL1P1 / RFU, AEBP2 / Fold change vs veh, AEBP2 / RFU, SNHG1 /// SNORD22 /// SNORD25 /// SNORD26 /// SNORD27 /// SNORD28 /// SNORD29 /// SNORD31 / Fold change vs veh, SNHG1 /// SNORD22 /// SNORD25 /// SNORD26 /// SNORD27 /// SNORD28 /// SNORD29 /// SNORD31 / Fold change (Aza/veh), C12orf56 (ProbeSet 11735607_a_at) / Fold change (ACY-1035/veh), C12orf56 (ProbeSet 11735607_a_at) / Fold change (Aza/veh), FGFR1OP (ProbeSet 11751329_s_at) / Fold change (ACY-1035/veh), FGFR1OP (ProbeSet 11751329_s_at) / Fold change (Aza/veh), VPS36 (ProbeSet 11739960_a_at) / Fold change (ACY-1035/veh), VPS36 (ProbeSet 11739960_a_at) / RFU SYPL1 (11715823_x_at) / Fold change /veh SYPL1 (11715823_x_at) / RFU IGFBP7 (11715501_s_at) / Fold change /veh IGFBP7 (11715501_s_at) / RFU REEP3 (11722064_at) / Fold change /veh REEP3 (11722064_at) / RFU IGLL1 (11728026_x_at) / Fold change /veh IGLL1 (11728026_x_at): dose or concentration left out as unconfirmed
Conditions: ProbeSet 11744854_x_at; LIST B

Nc1ccc(-c2cccs2)cc1NC(=O)c1ccc2c(c1)cc(C1CC1)n2CCN1CCOCC1 [ACY-1035]
RFU, ZNF28: 57.08 RFU
